In one assay the target is PTP1B (Homo sapiens (Human), UniProt P18031). In words: PTP activity assay with pNPP substrate, PTP1B. It is filed as biochemical. Here is the method: The PTP activity was assayed using p-nitrophenyl phosphate (pNPP) as a substrate in DMG buffer at 25° C. […] The reaction rate was measure using a SPECTRAMAX microplate spectrophotometer (Molecular Devices). For the determination of Km, the initial velocity and substrate concentration data were fitted to Michaelis-Menten equation using SIGMAPLOT. […] The assays were performed in 96-well plates. […] The reaction rate was measured using a Spectra Max Plus 384 Microplate Spectrophotometer (Molecular Devices). […] The reactions were incubated at room temperature for 30 min and quenched with 5N NaOH. The absorbance at 405 nm was read on the SpectraMax Plus 384 Microplate Spectrophotometer. For the reversibility test, the enzyme was incubated with the inhibitor at room temperature for 30 min before pNPP was added to initiate the reaction. The reaction was then incubated at room temperature for 30 min and quenched and read. […] Data were fitted using SigmaPlot Enzyme Kinetics Module (Systat Software, Inc.)
PTP1B, sequence (P18031 whole entry, species assumed): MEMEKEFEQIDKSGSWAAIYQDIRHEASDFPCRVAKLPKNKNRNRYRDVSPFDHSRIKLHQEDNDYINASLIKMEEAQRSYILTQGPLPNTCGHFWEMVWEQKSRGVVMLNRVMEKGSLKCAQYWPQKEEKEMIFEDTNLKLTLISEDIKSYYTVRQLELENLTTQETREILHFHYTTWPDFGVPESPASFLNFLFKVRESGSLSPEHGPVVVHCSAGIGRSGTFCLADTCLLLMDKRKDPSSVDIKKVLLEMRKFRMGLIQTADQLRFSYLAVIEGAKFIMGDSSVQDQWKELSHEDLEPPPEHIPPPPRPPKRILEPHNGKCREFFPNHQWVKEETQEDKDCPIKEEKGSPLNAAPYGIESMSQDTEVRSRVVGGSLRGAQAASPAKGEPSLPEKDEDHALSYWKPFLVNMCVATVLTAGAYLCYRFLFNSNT

Another assay concerns the target SHP2 (Homo sapiens (Human), UniProt Q06124). In words: PTP selectivity panel (pNPP), SHP2. It is filed as biochemical. The note with it: Table 3. Here is the method:
(§1) PTP activity was assayed using p-nitrophenyl phosphate (pNPP) as a substrate in DMG buffer (50 mM DMG, pH 7.0, 1 mM EDTA, 150 mM NaCl, 2 mM DTT, 0.1 mg/mL BSA) at 25° C. The assays were performed in 96-well plates. Normally, to determine the IC50 values, the reaction was initiated by the addition of enzyme (final concentration of 10 nM) to a reaction mixture (0.2 mL) containing 2 mM (Km for the substrate) pNPP with various concentrations of inhibitors. The reaction rate was measured using a Spectra Max Plus 384 Microplate Spectrophotometer (Molecular Devices). For compound 10, the final TC-PTP concentration was 0.04 nM. The reactions were incubated at room temperature for 30 min and quenched with 5N NaOH. The absorbance at 405 nm was read on the SpectraMax Plus 384 Microplate Spectrophotometer. For the reversibility test, the enzyme was incubated with the inhibitor at room temperature for 30 min before pNPP was added to initiate the reaction. The reaction was then incubated at room temperature for 30 min and quenched and read. […] To determine the mode of inhibition, the reactions were initiated by the additional enzyme (final concentration for TC-PTP was 0.4 nM and for PTP was 2 nM) to the reaction mixtures (0.2 mL) containing various concentrations of pNPP with different concentrations of the inhibitor. Data were fitted using SigmaPlot Enzyme Kinetics Module (Systat Software, Inc.)

For another assay, the target named is He-PTP (Homo sapiens (Human), UniProt P35236). In words: PTP selectivity panel (pNPP), He-PTP. Format: biochemical. To be noted: Table 3. Here is the method: as §1
He-PTP, sequence (P35236 whole entry, species assumed): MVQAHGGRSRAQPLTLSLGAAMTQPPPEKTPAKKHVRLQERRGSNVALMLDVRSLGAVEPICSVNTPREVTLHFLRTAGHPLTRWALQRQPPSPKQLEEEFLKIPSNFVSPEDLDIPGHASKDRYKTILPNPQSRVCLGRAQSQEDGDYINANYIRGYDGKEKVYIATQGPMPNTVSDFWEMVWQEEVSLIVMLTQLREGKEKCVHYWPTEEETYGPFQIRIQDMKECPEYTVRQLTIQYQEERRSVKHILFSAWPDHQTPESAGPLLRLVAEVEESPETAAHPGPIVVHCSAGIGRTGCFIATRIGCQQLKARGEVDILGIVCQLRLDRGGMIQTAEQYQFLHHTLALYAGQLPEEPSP
For another assay, the target named is FAP1 (Homo sapiens (Human), UniProt Q12923). Briefly: PTP selectivity panel (pNPP), FAP1. Format: biochemical. The note with it: Table 3. As to the method:
as §1

The next assay concerns the target PTPα (Homo sapiens (Human), UniProt P18433). Briefly: PTP selectivity panel (pNPP), PTPα. Format: biochemical. To be noted: Table 3. As to the method:
as §1

The target in the next assay is LAR (Homo sapiens (Human), UniProt P10586). Briefly: PTP selectivity panel (pNPP), LAR. It is filed as biochemical. To be noted: Table 3. Here is the method: as §1
Another assay deals with Cdc14A (Homo sapiens (Human), UniProt Q9UNH5). In words: PTP selectivity panel (pNPP), Cdc14A. To be noted: Table 3. Format: biochemical. Here is the method:
as §1

Another assay has as its target VHR (Homo sapiens (Human), UniProt P51452). Briefly: PTP selectivity panel (pNPP), VHR. Format: biochemical. To be noted: Table 3. Here is the method:
as §1

The next assay deals with LMWPTP (Homo sapiens (Human), UniProt P24666). In words: PTP selectivity panel (pNPP), LMWPTP. It is filed as biochemical. The note with it: Table 3. As to the method:
as §1

In assay [1] the test system is Src phosphorylation in PTP1B−/− mouse embryo fibroblast cells. Briefly: Effect on Src phosphorylation (pSrc416, pSrc527 immunoblot). Format: cell-based. To be noted: 2 h treatment. As to the method:
To study the effect of compound 10 on Src phosphorylation, PTP1B^−/− mouse embryo fibroblast cells were grown to 80% confluence before being treated with TC-PTP inhibitor 10 for 2 h. Cells were lysed, and the lysates were cleared by centrifugation at 15 000 rpm for 10 min. 30 μg of total proteins were boiled with sample buffer, separated by SDS-PAGE, transferred electrophoretically to a PVDF membrane, and immunoblotted with anti-pSrc416, anti-pSrc527 antibodies (Invitrogen 44-660G and 44-662G) and antic-Src antibody (Cell Singling Technology #2108) followed by incubation with horseradish peroxidase conjugated secondary antibodies. The blots were developed by the enhanced chemiluminesence technique (ECL kit, Amersham Biosciences).
To further investigate the specificity of compound 10 inside the cells, the ability of compound 10 to effect Src kinase phosphorylation within the same cells was measured. Src activity is regulated by phosphorylation at two distinct tyrosine residues. Autophosphorylation of Tyr416 in the kinase domain activates Src, while phosphorylation of Tyr527 in the C-terminal tail by the C-terminal Src kinase (Csk) blocks Src activity. Previous studies have shown that PTP1B can remove the inhibitory phosphate from pSrc527, while TC-PTP is capable of dephosphorylating pSrc416 (van Vilet et al., 2005; Bjorge, et al., 2000).
On the technique in general: Immunoblotting shows a protein as a band on a membrane.

Assay [2] concerns CD4 T-cells recovered from patients with type 1 diabetes. Briefly: pSTAT5 response to IL-2 in CD4 T-cells from type 1 diabetes patients. It is filed as cell-based, human. The note with it: cells with elevated TC-PTP pre-treated with compound. As to the method: An increase in expression of TC-PTP type 1 diabetic subject correlates with a decrease in STAT5 activation (Long et al., 2010). The protein expression levels of STAT5, JAK1, JAK3, and the negative regulator, TC-PTP, and CD4 T-cells of control and type 1 diabetic subjects were measured. […] No differences were found in STAT5, JAK3, or JAK1 protein expression levels between cells from the control group and the group diagnosed with type 1 diabetes. In contrast, TC-PTP expression was uniform in cells recovered from the control group but was increased overall in cells collected from patients with type 1 diabetes. […] This increased expression of TC-PTP correlated with decreased levels of pSTAT5 levels measured after exposure to IL-2.

Where two headings read alike, the source gives them in different places. Bounds are passed on as bounds.

VHR, sequence (P51452 whole entry, species assumed): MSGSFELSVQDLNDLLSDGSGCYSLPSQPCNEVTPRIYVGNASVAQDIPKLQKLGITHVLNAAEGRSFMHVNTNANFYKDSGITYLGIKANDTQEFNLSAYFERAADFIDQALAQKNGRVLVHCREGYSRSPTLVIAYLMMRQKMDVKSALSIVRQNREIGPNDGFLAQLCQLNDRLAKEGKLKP
LMWPTP, sequence (P24666 whole entry, species assumed): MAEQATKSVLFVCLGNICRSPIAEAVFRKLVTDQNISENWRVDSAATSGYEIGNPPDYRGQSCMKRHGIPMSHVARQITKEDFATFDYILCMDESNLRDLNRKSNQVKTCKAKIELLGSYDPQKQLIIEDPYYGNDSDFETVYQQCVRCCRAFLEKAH
PTPα, sequence (P18433 20-802): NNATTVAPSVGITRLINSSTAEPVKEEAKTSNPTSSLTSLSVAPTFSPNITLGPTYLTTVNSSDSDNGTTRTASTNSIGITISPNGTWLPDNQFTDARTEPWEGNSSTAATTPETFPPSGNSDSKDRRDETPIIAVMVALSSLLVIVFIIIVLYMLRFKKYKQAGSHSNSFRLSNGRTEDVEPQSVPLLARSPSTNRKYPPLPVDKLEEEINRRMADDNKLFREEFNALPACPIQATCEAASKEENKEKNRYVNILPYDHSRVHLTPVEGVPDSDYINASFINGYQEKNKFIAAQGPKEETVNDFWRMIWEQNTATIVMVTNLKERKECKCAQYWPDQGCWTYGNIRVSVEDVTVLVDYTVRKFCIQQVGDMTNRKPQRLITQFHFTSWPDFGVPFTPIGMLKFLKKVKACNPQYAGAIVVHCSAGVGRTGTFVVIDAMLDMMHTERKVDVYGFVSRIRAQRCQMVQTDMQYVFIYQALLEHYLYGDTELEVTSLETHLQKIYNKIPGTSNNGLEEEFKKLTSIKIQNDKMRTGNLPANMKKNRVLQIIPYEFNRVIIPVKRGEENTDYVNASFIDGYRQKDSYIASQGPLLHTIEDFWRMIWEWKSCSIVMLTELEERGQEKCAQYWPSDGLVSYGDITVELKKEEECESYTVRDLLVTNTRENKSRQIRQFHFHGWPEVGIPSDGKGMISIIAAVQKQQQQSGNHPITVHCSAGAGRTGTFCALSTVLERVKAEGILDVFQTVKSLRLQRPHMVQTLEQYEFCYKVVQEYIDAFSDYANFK
FAP1, sequence (Q12923 whole entry, species assumed): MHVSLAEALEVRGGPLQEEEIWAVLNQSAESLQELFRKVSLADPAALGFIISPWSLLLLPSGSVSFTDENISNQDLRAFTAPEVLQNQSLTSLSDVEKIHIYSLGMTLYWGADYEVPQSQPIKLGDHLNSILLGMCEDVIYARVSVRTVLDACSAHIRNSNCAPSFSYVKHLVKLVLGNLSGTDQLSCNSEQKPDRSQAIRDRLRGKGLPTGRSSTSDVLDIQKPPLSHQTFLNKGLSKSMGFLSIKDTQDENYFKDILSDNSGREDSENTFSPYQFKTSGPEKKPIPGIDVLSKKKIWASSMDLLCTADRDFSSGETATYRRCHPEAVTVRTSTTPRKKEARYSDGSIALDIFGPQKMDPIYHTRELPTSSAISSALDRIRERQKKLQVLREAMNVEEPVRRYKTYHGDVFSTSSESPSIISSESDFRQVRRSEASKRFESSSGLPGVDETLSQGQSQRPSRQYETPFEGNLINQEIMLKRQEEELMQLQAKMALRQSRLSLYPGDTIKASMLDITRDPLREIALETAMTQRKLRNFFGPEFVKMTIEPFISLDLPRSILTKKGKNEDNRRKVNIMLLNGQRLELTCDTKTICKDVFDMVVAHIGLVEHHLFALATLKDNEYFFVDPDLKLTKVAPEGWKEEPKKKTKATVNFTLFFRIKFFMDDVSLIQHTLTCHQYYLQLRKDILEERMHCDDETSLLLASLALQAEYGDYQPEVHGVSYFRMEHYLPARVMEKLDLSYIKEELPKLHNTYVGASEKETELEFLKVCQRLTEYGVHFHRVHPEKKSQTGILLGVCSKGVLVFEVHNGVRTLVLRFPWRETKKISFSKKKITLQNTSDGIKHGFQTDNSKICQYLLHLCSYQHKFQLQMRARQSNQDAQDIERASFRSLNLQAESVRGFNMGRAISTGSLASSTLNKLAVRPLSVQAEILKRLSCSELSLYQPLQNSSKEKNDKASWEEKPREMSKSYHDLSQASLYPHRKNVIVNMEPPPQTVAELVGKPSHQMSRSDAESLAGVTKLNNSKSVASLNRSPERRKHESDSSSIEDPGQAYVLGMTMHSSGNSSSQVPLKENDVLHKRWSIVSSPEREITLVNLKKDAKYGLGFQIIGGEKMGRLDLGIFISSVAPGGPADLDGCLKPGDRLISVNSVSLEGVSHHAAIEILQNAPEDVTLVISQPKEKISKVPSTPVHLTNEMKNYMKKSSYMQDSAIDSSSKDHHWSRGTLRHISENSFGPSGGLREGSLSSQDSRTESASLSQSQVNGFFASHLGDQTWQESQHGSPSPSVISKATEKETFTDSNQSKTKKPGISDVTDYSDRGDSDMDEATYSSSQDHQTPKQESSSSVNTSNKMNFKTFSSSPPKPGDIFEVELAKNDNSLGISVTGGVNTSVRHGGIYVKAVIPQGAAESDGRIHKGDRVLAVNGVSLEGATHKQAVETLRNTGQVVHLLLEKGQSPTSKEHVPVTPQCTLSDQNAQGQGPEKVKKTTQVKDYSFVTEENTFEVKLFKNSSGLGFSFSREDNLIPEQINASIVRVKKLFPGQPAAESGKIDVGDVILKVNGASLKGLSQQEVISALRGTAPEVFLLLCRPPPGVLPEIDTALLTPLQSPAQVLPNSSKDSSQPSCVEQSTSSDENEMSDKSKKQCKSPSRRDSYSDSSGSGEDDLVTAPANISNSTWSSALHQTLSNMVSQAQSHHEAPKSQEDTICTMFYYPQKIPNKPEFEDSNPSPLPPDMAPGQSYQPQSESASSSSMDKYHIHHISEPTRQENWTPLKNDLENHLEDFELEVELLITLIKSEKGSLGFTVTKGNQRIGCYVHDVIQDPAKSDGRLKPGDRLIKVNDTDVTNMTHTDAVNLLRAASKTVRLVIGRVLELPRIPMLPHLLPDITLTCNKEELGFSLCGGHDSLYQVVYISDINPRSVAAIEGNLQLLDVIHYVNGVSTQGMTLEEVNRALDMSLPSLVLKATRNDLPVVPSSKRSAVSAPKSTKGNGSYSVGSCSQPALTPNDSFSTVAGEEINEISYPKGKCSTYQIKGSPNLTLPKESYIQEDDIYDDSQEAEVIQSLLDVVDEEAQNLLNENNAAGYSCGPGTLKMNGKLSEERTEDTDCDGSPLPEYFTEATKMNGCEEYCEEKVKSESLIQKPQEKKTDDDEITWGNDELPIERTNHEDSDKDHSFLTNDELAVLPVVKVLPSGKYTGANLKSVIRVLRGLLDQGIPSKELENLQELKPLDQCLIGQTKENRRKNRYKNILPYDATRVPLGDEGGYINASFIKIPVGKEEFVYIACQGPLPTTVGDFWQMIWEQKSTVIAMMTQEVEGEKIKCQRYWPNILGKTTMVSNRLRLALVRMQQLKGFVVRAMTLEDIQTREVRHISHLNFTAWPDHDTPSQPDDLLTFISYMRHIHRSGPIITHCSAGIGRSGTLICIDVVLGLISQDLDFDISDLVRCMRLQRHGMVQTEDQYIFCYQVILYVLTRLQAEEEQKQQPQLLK
SHP2, sequence (Q06124 whole entry, species assumed): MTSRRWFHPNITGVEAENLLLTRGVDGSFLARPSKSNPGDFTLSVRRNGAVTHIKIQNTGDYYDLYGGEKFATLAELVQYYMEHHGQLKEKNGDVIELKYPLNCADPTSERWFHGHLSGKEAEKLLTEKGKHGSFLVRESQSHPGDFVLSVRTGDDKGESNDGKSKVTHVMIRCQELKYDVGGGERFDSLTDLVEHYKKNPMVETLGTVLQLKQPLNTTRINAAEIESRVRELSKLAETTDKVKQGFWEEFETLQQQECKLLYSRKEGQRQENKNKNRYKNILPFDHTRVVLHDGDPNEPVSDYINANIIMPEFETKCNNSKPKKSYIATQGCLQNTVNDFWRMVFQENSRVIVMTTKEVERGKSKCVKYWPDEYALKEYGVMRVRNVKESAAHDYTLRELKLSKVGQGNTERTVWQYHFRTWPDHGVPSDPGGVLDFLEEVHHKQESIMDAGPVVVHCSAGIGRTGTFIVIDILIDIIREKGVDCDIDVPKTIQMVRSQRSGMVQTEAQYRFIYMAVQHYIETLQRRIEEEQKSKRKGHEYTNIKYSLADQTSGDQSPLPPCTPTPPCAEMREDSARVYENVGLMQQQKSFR

For `CCc1ccc(C(=O)NCCCCC(NC(=O)C(Cc2ccc(C(F)(F)P(=O)(O)O)cc2)NC(=O)C(Cc2ccccc2)NC(=O)COC2CC(C)CCC2C(C)C)C(N)=O)cc1` (centres unmarked) [Compound 10], the Ki at PTP1B (Table 3, Example 13, read-out: Ki (PTP1B)) is 34 ± 2.8 nM; at PTP1B (tight binding inhibition equation, Table 1, read-out: Ki for PTP1B), 23.1 ± 0.7 nM; at SHP2, more than 1000 nM; at He-PTP, more than 1000 nM; on FAP1, more than 1000 nM; at PTPα, more than 1000 nM. Also, the Ki at LAR, on Cdc14A, on VHR and at LMWPTP was more than 1000 nM in each case. Besides, the “mode of inhibition of PTP1B” value at PTP1B (kinetic analysis) was “reversible and competitive inhibitor”. For the same molecule, the pSrc416 phosphorylation result in assay [1] was “dose-dependent increase”. In [1], the pSrc527 phosphorylation result is “no significant change”. In addition, in assay [2], the “rescue of decreased response to IL-2 (pSTAT5)” value was “rescued in a concentration dependent manner”.

As a reminder, the Ki is the equilibrium dissociation constant of an inhibitor or competing ligand from its target.

Source of the values: patent publication US9217012B2, “Inhibitors of protein tyrosine phosphatases” (Indiana University Research and Technology Corporation, priority 2009, dated 2015).
